This note sets out measurements from US20080161232A1, “C5a Receptor Antagonist” (JERINI AG, priority 2005, published 2008).

The target in this experiment is T1, human C5aR(CD88) (Homo sapiens, UniProt P21730).
T1 construct: expressed in transfected cells; host or cells: rat basophilic leukemia cells (RBL)
T1 sequence (P21730 1-350): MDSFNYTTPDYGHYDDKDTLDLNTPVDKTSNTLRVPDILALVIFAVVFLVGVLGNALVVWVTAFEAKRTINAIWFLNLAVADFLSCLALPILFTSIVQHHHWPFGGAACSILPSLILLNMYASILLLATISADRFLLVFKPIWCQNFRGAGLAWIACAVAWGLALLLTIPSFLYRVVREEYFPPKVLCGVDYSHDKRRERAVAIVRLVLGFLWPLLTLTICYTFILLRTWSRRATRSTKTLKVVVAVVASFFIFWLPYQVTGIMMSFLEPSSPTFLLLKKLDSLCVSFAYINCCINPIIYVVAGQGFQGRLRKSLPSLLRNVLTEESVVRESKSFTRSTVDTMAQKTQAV
In words: Determination of the IC50 value in an enzyme release assay (functional assay, antagonistic activity). In kind it is cell-based.

The mark [1] stands for this setting: antagonistic activity, IC50 group in enzyme release assay, RBL cells expressing human C5aR(CD88), read-out: activity (group).

Where two headings read alike, the source gives them in different places. Non-standard residues stand in square brackets, D forms with d. Residues, ends and D or L forms follow the SMILES beside them. ξ: configuration not given here. Phe(3-NO2) = N[C@@H](Cc1cccc([N+](=O)[O-])c1)C(=O)O; Phe(3,4-Cl2) = N[C@@H](Cc1ccc(Cl)c(Cl)c1)C(=O)O; Phe(2,4-Cl2) = N[C@@H](Cc1ccc(Cl)cc1Cl)C(=O)O; Phe(2-CF3) = N[C@@H](Cc1ccccc1C(F)(F)F)C(=O)O; Phe(3,4-F2) = N[C@@H](Cc1ccc(F)c(F)c1)C(=O)O; ξTrp(5-Me) = Cc1ccc2[nH]cc(CC(N)C(=O)O)c2c1; Phe(3-Cl) = N[C@@H](Cc1cccc(Cl)c1)C(=O)O; Phe(3-OMe) = COc1cccc(C[C@H](N)C(=O)O)c1; Phe(2-Cl) = N[C@@H](Cc1ccccc1Cl)C(=O)O; Phe(3-F) = N[C@@H](Cc1cccc(F)c1)C(=O)O; Phe(4-F) = N[C@@H](Cc1ccc(F)cc1)C(=O)O; 2Nal = N[C@@H](Cc1ccc2ccccc2c1)C(=O)O; Phe(2-F) = N[C@@H](Cc1ccccc1F)C(=O)O; Bta = N[C@@H](Cc1csc2ccccc12)C(=O)O; d(hLeu) = CC(C)CC[C@@H](N)C(=O)O; Cha = N[C@@H](CC1CCCCC1)C(=O)O; Orn = NCCC[C@H](N)C(=O)O

Turning to `CC(=O)N[C@@H](Cc1ccccc1)C(=O)N[C@@H](CCCN)C(=O)N1CCC[C@H]1C(=O)N[C@H](CCC(C)C)C(=O)N[C@@H](Cc1csc2ccccc12)C(=O)N[C@@H](Cc1ccc(F)cc1)C(N)=O` [Compound 279, Ac-Phe-Orn-Pro-hle-Bta-Pff-NH2] (Ac-F[Orn]P[d(hLeu)][Bta][Phe(4-F)]-NH2), under setting [1], the IC50 lay in the range of 50 to 200 nM.

On to `CC(=O)N[C@@H](Cc1ccccc1)C(=O)N[C@@H](CCCN)C(=O)N1CCC[C@H]1C(=O)N[C@H](CCC(C)C)C(=O)N[C@@H](Cc1csc2ccccc12)C(=O)N[C@@H](Cc1ccccc1)C(N)=O` [Compound 280, Ac-Phe-Orn-Pro-hle-Bta-Phe-NH2] (Ac-F[Orn]P[d(hLeu)][Bta]F-NH2), for which the IC50 under setting [1] lay within 20 to 50 nM.

With `CC(=O)N[C@@H](Cc1ccccc1)C(=O)N[C@@H](CCCN)C(=O)N1CCC[C@H]1C(=O)N[C@H](CCC(C)C)C(=O)N[C@@H](Cc1csc2ccccc12)C(=O)N[C@H](Cc1ccccc1)C(=O)O` [Compound 281, Ac-Phe-Orn-Pro-hle-Bta-phe-OH] (Ac-F[Orn]P[d(hLeu)][Bta][dF]-OH), under setting [1], the IC50 lay within 50 to 200 nM.

With `CC(=O)N[C@@H](Cc1ccccc1)C(=O)N[C@@H](CCCN)C(=O)N1CCC[C@H]1C(=O)N[C@H](CCC(C)C)C(=O)N[C@@H](Cc1csc2ccccc12)C(=O)N[C@@H](Cc1ccc(O)cc1)C(N)=O` [Compound 282, Ac-Phe-Orn-Pro-hle-Bta-Tyr-NH2] (Ac-F[Orn]P[d(hLeu)][Bta]Y-NH2), the IC50 under setting [1] lay within 50 to 200 nM.

As to `CC(=O)N[C@@H](Cc1ccccc1)C(=O)N[C@@H](CCCN)C(=O)N1CCC[C@H]1C(=O)N[C@H](CCC(C)C)C(=O)N[C@@H](Cc1ccc(F)c(F)c1)C(=O)N[C@@H](Cc1ccccc1)C(N)=O` [Compound 283, Ac-Phe-Orn-Pro-hle-Dff-Phe-NH2] (Ac-F[Orn]P[d(hLeu)][Phe(3,4-F2)]F-NH2), under setting [1], the IC50 lay within 50 to 200 nM.

`CC(=O)N[C@@H](Cc1ccccc1)C(=O)N[C@@H](CCCN)C(=O)N1CCC[C@H]1C(=O)N[C@H](CCC(C)C)C(=O)N[C@@H](Cc1ccc(Cl)c(Cl)c1)C(=O)N[C@@H](Cc1ccccc1)C(N)=O` [Compound 284, Ac-Phe-Orn-Pro-hle-Eaa-Phe-NH2] (Ac-F[Orn]P[d(hLeu)][Phe(3,4-Cl2)]F-NH2): the IC50 under setting [1] was in the range of 50 to 200 nM.

Consider `CC(=O)N[C@@H](Cc1ccccc1)C(=O)N[C@@H](CCCN)C(=O)N1CCC[C@H]1C(=O)N[C@H](CCC(C)C)C(=O)NC(Cc1c[nH]c2ccc(C)cc12)C(=O)N[C@@H](Cc1ccccc1)C(N)=O` (stereo partly drawn) [Compound 285, Ac-Phe-Orn-Pro-hle-Egc-Phe-NH2] (Ac-F[Orn]P[d(hLeu)][ξTrp(5-Me)]F-NH2), for which the IC50 under setting [1] fell in the range of 50 to 200 nM.

On to `CC(=O)N[C@@H](Cc1ccccc1)C(=O)N[C@@H](CCCN)C(=O)N1CCC[C@H]1C(=O)N[C@H](CCC(C)C)C(=O)N[C@@H](Cc1ccc(Cl)cc1Cl)C(=O)N[C@@H](Cc1ccccc1)C(N)=O` [Compound 286, Ac-Phe-Orn-Pro-hle-Egy-Phe-NH2] (Ac-F[Orn]P[d(hLeu)][Phe(2,4-Cl2)]F-NH2), for which the IC50 under setting [1] fell in the range of 50 to 200 nM.

In the case of `CC(=O)N[C@@H](Cc1ccccc1)C(=O)N[C@@H](CCCN)C(=O)N1CCC[C@H]1C(=O)N[C@H](CCC(C)C)C(=O)N[C@@H](Cc1cccc([N+](=O)[O-])c1)C(=O)N[C@@H](Cc1ccccc1)C(N)=O` [Compound 287, Ac-Phe-Orn-Pro-hle-Egz-Phe-NH2] (Ac-F[Orn]P[d(hLeu)][Phe(3-NO2)]F-NH2), under setting [1], the IC50 was in the range of 50 to 200 nM.

As to `CC(=O)N[C@@H](Cc1ccccc1)C(=O)N[C@@H](CCCN)C(=O)N1CCC[C@H]1C(=O)N[C@H](CCC(C)C)C(=O)N[C@@H](Cc1cccc(Cl)c1)C(=O)N[C@@H](Cc1ccc2ccccc2c1)C(N)=O` [Compound 288, Ac-Phe-Orn-Pro-hle-Mcf-2Ni—NH2] (Ac-F[Orn]P[d(hLeu)][Phe(3-Cl)][2Nal]-NH2), under setting [1], the IC50 is 50 to 200 nM.

`CC(=O)N[C@@H](Cc1ccccc1)C(=O)N[C@@H](CCCN)C(=O)N1CCC[C@H]1C(=O)N[C@H](CCC(C)C)C(=O)N[C@@H](Cc1cccc(Cl)c1)C(=O)N[C@@H](CC1CCCCC1)C(N)=O` [Compound 289, Ac-Phe-Orn-Pro-hle-Mcf-Cha-NH2] (Ac-F[Orn]P[d(hLeu)][Phe(3-Cl)][Cha]-NH2): the IC50 under setting [1] was in the range of 20 to 50 nM.

On to `CC(=O)N[C@@H](Cc1ccccc1)C(=O)N[C@@H](CCCN)C(=O)N1CCC[C@H]1C(=O)N[C@H](CCC(C)C)C(=O)N[C@@H](Cc1cccc(Cl)c1)C(=O)N[C@@H](Cc1ccc(F)cc1)C(N)=O` [Compound 290, Ac-Phe-Orn-Pro-hle-Mcf-Pff-NH2] (Ac-F[Orn]P[d(hLeu)][Phe(3-Cl)][Phe(4-F)]-NH2), for which the IC50 under setting [1] was 50 to 200 nM.

Consider `CC(=O)N[C@@H](Cc1ccccc1)C(=O)N[C@@H](CCCN)C(=O)N1CCC[C@H]1C(=O)N[C@H](CCC(C)C)C(=O)N[C@@H](Cc1cccc(Cl)c1)C(=O)N[C@@H](Cc1ccccc1)C(N)=O` [Compound 291, Ac-Phe-Orn-Pro-hle-Mcf-Phe-NH2] (Ac-F[Orn]P[d(hLeu)][Phe(3-Cl)]F-NH2), for which, where the note is “activity (group)”, the IC50 lay in the range of 50 to 200 nM.

With `CC(=O)N[C@@H](Cc1ccccc1)C(=O)N[C@@H](CCCN)C(=O)N1CCC[C@H]1C(=O)N[C@H](CCC(C)C)C(=O)N[C@@H](Cc1cccc(F)c1)C(=O)N[C@@H](Cc1ccccc1)C(N)=O` [Compound 292, Ac-Phe-Orn-Pro-hle-Mff-Phe-NH2] (Ac-F[Orn]P[d(hLeu)][Phe(3-F)]F-NH2), the IC50 under setting [1] fell in the range of 50 to 200 nM.

On to `COc1cccc(C[C@H](NC(=O)[C@@H](CCC(C)C)NC(=O)[C@@H]2CCCN2C(=O)[C@H](CCCN)NC(=O)[C@H](Cc2ccccc2)NC(C)=O)C(=O)N[C@@H](Cc2ccccc2)C(N)=O)c1` [Compound 293, Ac-Phe-Orn-Pro-hle-Mmy-Phe-NH2] (Ac-F[Orn]P[d(hLeu)][Phe(3-OMe)]F-NH2), for which the IC50 under setting [1] lay in the range of 50 to 200 nM.

Consider `CC(=O)N[C@@H](Cc1ccccc1)C(=O)N[C@@H](CCCN)C(=O)N1CCC[C@H]1C(=O)N[C@H](CCC(C)C)C(=O)N[C@@H](Cc1ccccc1Cl)C(=O)N[C@@H](Cc1ccccc1)C(N)=O` [Compound 294, Ac-Phe-Orn-Pro-hle-Ocf-Phe-NH2] (Ac-F[Orn]P[d(hLeu)][Phe(2-Cl)]F-NH2), for which, under setting [1], the IC50 fell in the range of 50 to 200 nM.

Take `CC(=O)N[C@@H](Cc1ccccc1)C(=O)N[C@@H](CCCN)C(=O)N1CCC[C@H]1C(=O)N[C@H](CCC(C)C)C(=O)N[C@@H](Cc1ccccc1F)C(=O)N[C@@H](Cc1ccccc1)C(N)=O` [Compound 295, Ac-Phe-Orn-Pro-hle-Off-Phe-NH2] (Ac-F[Orn]P[d(hLeu)][Phe(2-F)]F-NH2): the IC50 under setting [1] was in the range of 50 to 200 nM.

Regarding `CC(=O)N[C@@H](Cc1ccccc1)C(=O)N[C@@H](CCCN)C(=O)N1CCC[C@H]1C(=O)N[C@H](CCC(C)C)C(=O)N[C@@H](Cc1ccccc1C(F)(F)F)C(=O)N[C@@H](Cc1ccccc1)C(N)=O` [Compound 296, Ac-Phe-Orn-Pro-hle-Otf-Phe-NH2] (Ac-F[Orn]P[d(hLeu)][Phe(2-CF3)]F-NH2), the IC50 under setting [1] is 50 to 200 nM.

Turning to `CC(=O)N[C@@H](Cc1ccccc1)C(=O)N[C@@H](CCCN)C(=O)N1CCC[C@H]1C(=O)N[C@H](CCC(C)C)C(=O)N[C@@H](Cc1ccc(F)cc1)C(=O)N[C@@H](Cc1ccc2ccccc2c1)C(N)=O` [Compound 297, Ac-Phe-Orn-Pro-hle-Pff-2Ni—NH2] (Ac-F[Orn]P[d(hLeu)][Phe(4-F)][2Nal]-NH2), the IC50 under setting [1] was in the range of 50 to 200 nM.

Take `CC(=O)N[C@@H](Cc1ccccc1)C(=O)N[C@@H](CCCN)C(=O)N1CCC[C@H]1C(=O)N[C@H](CCC(C)C)C(=O)N[C@@H](Cc1ccc(F)cc1)C(=O)N[C@@H](CC1CCCCC1)C(N)=O` [Compound 298, Ac-Phe-Orn-Pro-hle-Pff-Cha-NH2] (Ac-F[Orn]P[d(hLeu)][Phe(4-F)][Cha]-NH2): under setting [1], the IC50 was in the range of 50 to 200 nM.

For `CC(=O)N[C@@H](Cc1ccccc1)C(=O)N[C@@H](CCCN)C(=O)N1CCC[C@H]1C(=O)N[C@H](CCC(C)C)C(=O)N[C@@H](Cc1ccc(F)cc1)C(=O)N[C@@H](Cc1ccc(Cl)c(Cl)c1)C(N)=O` [Compound 299, Ac-Phe-Orn-Pro-hle-Pff-Eaa-NH2] (Ac-F[Orn]P[d(hLeu)][Phe(4-F)][Phe(3,4-Cl2)]-NH2), the IC50 under setting [1] is 50 to 200 nM.

For the compound `COc1cccc(C[C@H](NC(=O)[C@H](Cc2ccc(F)cc2)NC(=O)[C@@H](CCC(C)C)NC(=O)[C@@H]2CCCN2C(=O)[C@H](CCCN)NC(=O)[C@H](Cc2ccccc2)NC(C)=O)C(N)=O)c1` [Compound 300, Ac-Phe-Orn-Pro-hle-Pff-Mmy-NH2] (Ac-F[Orn]P[d(hLeu)][Phe(4-F)][Phe(3-OMe)]-NH2), the IC50 under setting [1] fell in the range of 50 to 200 nM.

In the case of `CC(=O)N[C@@H](Cc1ccccc1)C(=O)N[C@@H](CCCN)C(=O)N1CCC[C@H]1C(=O)N[C@H](CCC(C)C)C(=O)N[C@@H](Cc1ccc(F)cc1)C(=O)N[C@@H](Cc1ccc(F)cc1)C(N)=O` [Compound 301, Ac-Phe-Orn-Pro-hle-Pff-Pff-NH2] (Ac-F[Orn]P[d(hLeu)][Phe(4-F)][Phe(4-F)]-NH2), under setting [1], the IC50 was 50 to 200 nM.

Regarding `CC(=O)N[C@@H](Cc1ccccc1)C(=O)N[C@@H](CCCN)C(=O)N1CCC[C@H]1C(=O)N[C@H](CCC(C)C)C(=O)N[C@@H](Cc1ccc(F)cc1)C(=O)N[C@@H](Cc1ccccc1)C(N)=O` [Compound 302, Ac-Phe-Orn-Pro-hle-Pff-Phe-NH2] (Ac-F[Orn]P[d(hLeu)][Phe(4-F)]F-NH2), the IC50 (activity (group)) lay in the range of 50 to 200 nM.

For `CC(=O)N[C@@H](Cc1ccccc1)C(=O)N[C@@H](CCCN)C(=O)N1CCC[C@H]1C(=O)N[C@H](CCC(C)C)C(=O)N[C@@H](Cc1ccccc1)C(=O)N[C@@H](Cc1ccccc1)C(N)=O` [Compound 304, Ac-Phe-Orn-Pro-hle-Phe-Phe-NH2] (Ac-F[Orn]P[d(hLeu)]FF-NH2), under setting [1], the IC50 was in the range of 50 to 200 nM.
